Assay [1] concerns PC3 cells (human prostate cancer-derived). The experiment in a line: SRB growth inhibition assay, PC3 cells. It is filed as cell-based. As to the method:
(§1) The effect of perfluorinated compounds on the inhibition of tumour cell growth was assessed iii vitro using three human tumour-derived cell lines. Cancer cell lines were tested using the sulphorhodamine B (SRB) assay (which measures cellular protein and is directly related to cell number), which is utilised by the […] to screen anti-cancer agents.
(§2) HT-29 cells (human colon tumour-derived), MCF7 cells (human breast cancer-derived) and PC3 cells (human prostate cancer-derived) were harvested and diluted (to 5×10^4 cells per ml, 1×10^5 cells per ml and 7.5×10^4 cells per ml respectively) in RPMI 1640 medium containing 5% FBS, 2 mM glutamine and. 50 μg/ml gentamicin. 100 μl of cell suspension per well was added to 96 well plates and allowed to attach overnight. Cells were exposed to test compounds dissolved in DMSO in 100 μl of medium to give final drug concentrations of 0, 0.3, 1, 3, 10, 30, 100, 300, 1000 and 3000 μM (and DMSO at 0.25%). (n=6 for each drug concentration). After 48 hours, cells were fixed in 10% trichloroacetic acid (TCA) at 4° C. for 1-2 hours then washed using water and subsequently air-dried. 100 μl SRB solution (0.4%) in 1% Acetic Acid was added to each well, and plates were incubated at room temperature for 10 minutes. Unbound dye was removed by washing with 1% acetic acid. Plates were air-dried and bound stain was solubilised in 10 mM Tris base and the absorbance read at 520 nm.

Assay [2] concerns the target T1, human PPAR-gamma ligand binding domain (Homo sapiens, UniProt P37231).
T1 sequence (P37231 202-505): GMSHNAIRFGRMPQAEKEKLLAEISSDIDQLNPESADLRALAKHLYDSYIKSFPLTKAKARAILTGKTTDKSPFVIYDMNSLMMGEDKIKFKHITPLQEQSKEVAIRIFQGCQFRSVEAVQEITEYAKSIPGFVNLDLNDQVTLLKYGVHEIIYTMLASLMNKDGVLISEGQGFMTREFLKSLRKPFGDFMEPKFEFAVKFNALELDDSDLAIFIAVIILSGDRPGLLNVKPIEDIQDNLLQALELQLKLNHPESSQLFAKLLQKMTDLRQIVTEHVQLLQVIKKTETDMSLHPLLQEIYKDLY
The experiment in a line: PPAR gamma ligand binding (displacement of cis-parinaric acid).

Assay [3] has as its system MCF7 cells (human breast cancer-derived). The experiment in a line: SRB growth inhibition assay, MCF7 cells. Format: cell-based. As to conditions: 48 hours exposure. Here is the method: as §1, §2
In assay [4] the test system is three human tumour-derived cell lines (HT-29, MCF7, PC3). The experiment in a line: SRB growth inhibition, summary over the three human tumour cell lines. It is filed as cell-based. The note with it: over HT-29, MCF7 and PC3. Here is the method: as §1, §2
In assay [5] the target is T2, human PPAR-alpha ligand binding domain (Homo sapiens, UniProt Q07869).
T2 sequence (Q07869 179-468): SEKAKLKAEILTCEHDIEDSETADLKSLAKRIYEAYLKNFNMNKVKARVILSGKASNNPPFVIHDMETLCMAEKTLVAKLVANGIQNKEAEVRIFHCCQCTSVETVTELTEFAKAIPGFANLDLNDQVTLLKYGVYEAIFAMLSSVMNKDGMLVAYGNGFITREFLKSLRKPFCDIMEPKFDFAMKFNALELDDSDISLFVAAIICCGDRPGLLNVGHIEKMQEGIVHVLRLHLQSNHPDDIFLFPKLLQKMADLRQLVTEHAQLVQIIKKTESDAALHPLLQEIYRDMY
The experiment in a line: PPAR alpha ligand binding (displacement of DAUDA). The note with it: for Kd: DAUDA displacement.

Another assay has as its target T3, PPAR gamma (Homo sapiens, UniProt P37231).
T3 construct: 25 ng of vector DNA carrying PPAR alpha, delta or gamma; expressed in transfected cells; host or cells: COS-1 (African green monkey kidney cells)
T3 sequence (P37231 1-505): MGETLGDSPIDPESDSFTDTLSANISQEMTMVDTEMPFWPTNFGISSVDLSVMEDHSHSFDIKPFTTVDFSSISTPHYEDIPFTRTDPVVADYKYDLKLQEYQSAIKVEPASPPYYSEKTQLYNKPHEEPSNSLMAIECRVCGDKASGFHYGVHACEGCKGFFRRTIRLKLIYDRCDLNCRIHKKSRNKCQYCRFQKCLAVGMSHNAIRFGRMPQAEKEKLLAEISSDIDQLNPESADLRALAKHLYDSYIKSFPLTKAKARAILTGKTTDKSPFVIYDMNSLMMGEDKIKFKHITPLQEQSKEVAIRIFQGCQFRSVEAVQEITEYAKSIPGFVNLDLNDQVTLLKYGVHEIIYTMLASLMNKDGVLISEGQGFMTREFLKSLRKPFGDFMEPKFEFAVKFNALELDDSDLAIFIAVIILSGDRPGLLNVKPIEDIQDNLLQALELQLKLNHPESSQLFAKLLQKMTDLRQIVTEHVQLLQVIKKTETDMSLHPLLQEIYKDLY
The experiment in a line: PPAR gamma transactivation assay in COS-1 cells. Format: cell-based.

Assay [6] is described as follows: 7-day oral gavage study, metabolic parameters, body weight and food consumption in CR SD rats. It is filed as in vivo, rat. The note with it: for Cholesterol (plasma) / Glucose (plasma) / Insulin (plasma) / Triglycerides (plasma): n=5. Here is the method:
Two groups (n=5) of CR SD rats (approximately 300 g) were treated with 2 dose levels of perfluorinated compounds (15 and 25 mg/kg/day body weight). Animals were administered test substances, dissolved in corn oil, by oral gavage, daily for 7 days. One group of 20 CR SD rays was also treated with vehicle (corn oil) alone. Body weight and food consumption were monitored daily.
Twenty-four hours after the last dose the animals were killed by an increasing concentration of carbon dioxide. Blood was collected by cardiac puncture and plasma was prepared and stored at −70° C. until analysed.
Plasma was analysed for triglycerides, cholesterol, and glucose, using kits purchased from Sigma. Concentrations of plasma insulin were determined using a commercially available enzyme-immunoassay-based kit from Amersham Biosciences. All assays were carried out as specified by the manufacturer.

For the next assay, the target named is T4, PPAR delta (Homo sapiens, UniProt Q03181).
T4 construct: 25 ng of vector DNA carrying PPAR alpha, delta or gamma; expressed in transfected cells; host or cells: COS-1 (African green monkey kidney cells)
T4 sequence (Q03181 1-441): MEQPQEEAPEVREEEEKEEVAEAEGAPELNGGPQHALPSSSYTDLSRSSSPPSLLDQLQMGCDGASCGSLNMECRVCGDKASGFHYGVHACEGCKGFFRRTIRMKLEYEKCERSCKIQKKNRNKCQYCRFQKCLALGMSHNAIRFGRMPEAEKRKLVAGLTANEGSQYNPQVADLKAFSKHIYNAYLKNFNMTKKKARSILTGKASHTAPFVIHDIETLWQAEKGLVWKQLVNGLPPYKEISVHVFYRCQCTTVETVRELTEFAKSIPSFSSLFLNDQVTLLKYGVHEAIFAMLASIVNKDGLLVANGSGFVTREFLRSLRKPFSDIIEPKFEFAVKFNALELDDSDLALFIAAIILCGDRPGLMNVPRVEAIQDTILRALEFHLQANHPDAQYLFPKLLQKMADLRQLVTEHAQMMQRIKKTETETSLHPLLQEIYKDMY
The experiment in a line: PPAR delta transactivation assay in COS-1 cells. As to conditions: for Fold activation of PPAR delta: mean±SD n=3; for Inhibition of activation of PPAR delta (by a factor of): transactivation assay. It is filed as cell-based. The arrangement: Fold activation of PPAR delta: dose or concentration left out as unconfirmed.

In assay [7] the test system is HT-29 cells (human colon tumour-derived). In words: SRB growth inhibition assay, HT-29 cells. As to conditions: 48 hours exposure. It is filed as cell-based. As to the method: as §1, §2
Setting [8] is: Homo sapiens, PC-3, 48 hours exposure.
[9] abbreviates: at 10 μM (maximal activation by test compound), value in parenthesis = positive control at 10 μM.
Where [10] appears, read: 15 mg/kg/day oral gavage 7 days.
[11] abbreviates: 25 mg/kg/day oral gavage 7 days.

Read-outs that look alike come from different tables or passages of the source.

Broadly, the IC50 is the point on the concentration scale where inhibition reaches its midpoint. For the compound `O=C(O)C(F)(F)C(F)(F)C(F)(F)C(F)(F)C(F)(F)C(F)(F)F` [PFHA, Perfluoroheptanoic acid], inhibition in assay [1] (setting [8]) was half-maximal at 321 µM (IC50). In [2], this compound came in with a Kd of 99 µM. Moreover, in [3] (Homo sapiens, MCF7, 48 h), it took 573 µM to reach half-maximal inhibition (IC50). Also, in assay [4] (Homo sapiens), the IC50 lay in the range of 200 to 600 µM. In assay [5], the “Reduction in binding affinity for PPAR alpha compared to PFOA” value is 30 fold. Also, the “Fold activation of PPAR gamma” value on PPAR gamma (setting [9]) was found to be 3.43 ± 2.62 fold. For the same compound, in [6] (setting [10]), the “Cholesterol (plasma)” value was found to be 1.50 ± 0.23 mmol/L, the “Glucose (plasma)” value was found to be 16.43 ± 2.59 mmol/L, the “Insulin (plasma)” value was 114.2 ± 90.06 ng/mL and the “Triglycerides (plasma)” value is 0.94 ± 0.20 mmol/L. Besides, in [6] (setting [11]), the “Cholesterol (plasma)” value worked out at 1.46 ± 0.17 mmol/L, the “Glucose (plasma)” value came out at 18.15 ± 2.78 mmol/L, the “Insulin (plasma)” value is 165.1 ± 114.4 ng/mL and the “Triglycerides (plasma)” value was 0.75 ± 0.26 mmol/L. Moreover, on PPAR delta, the “Fold activation of PPAR delta” value is given as 0.45 ± 0.28 fold and the “Inhibition of activation of PPAR delta (by a factor of)” value (“Inhibition of activation of PPAR delta” for short) is given as 2.2. The compound further yielded an IC50 in [7] (Homo sapiens, HT-29, 48 h) of 371 µM.

Turning to `O=C(O)C(F)(F)C(F)(F)F` [PFPA, Perfluropropionic acid], the half-inhibitory concentration (IC50) in assay [1] (48 hours exposure) is above 3000 µM; in [3], above 3000 µM; in [4], around 3000 µM; in assay [7] it was above 3000 µM. For the same compound, the “Reduction in binding affinity for PPAR gamma compared to PFOA” value in assay [2] is around 2 fold. In addition, the Kd was 0.6 µM in assay [2] (read-out: PPAR Receptor Binding Kd Gamma (apparent Kd), cis-parinaric acid displacement) and 2 µM in [5] (read-out: PPAR Receptor Binding Kd Alpha (apparent Kd)). Further, the “Fold activation of PPAR gamma” value on PPAR gamma (at 1 mM, mean±SD n=3) came out at 1.86 ± 0.81 fold. Further, the “Cholesterol (plasma)” value in assay [6] (setting [10]) came out at 1.28 ± 0.10 mmol/L; in assay [6] (setting [11]) it was 1.39 ± 0.39 mmol/L. Also, the “Glucose (plasma)” value in assay [6] (setting [10]) came out at 15.46 ± 1.13 mmol/L; in [6] (setting [11]), 14.97 ± 1.29 mmol/L. In addition, the “Insulin (plasma)” value in assay [6] (setting [10]) came to 129 ± 36.05 ng/mL; in assay [6] (setting [11]), 179.7 ± 177.1 ng/mL. In addition, the “Triglycerides (plasma)” value in [6] (setting [10]) is 1.02 ± 0.38 mmol/L; in assay [6] (setting [11]), 0.95 ± 0.17 mmol/L. Also, the “Bodyweight change” value in [6] (15 and 25 mg/kg/day, continued till end of treatment) is reported as “lost bodyweight after day 3”. The “Fold activation of PPAR delta” value on PPAR delta was 0.63 ± 0.25 fold. The “Inhibition of activation of PPAR delta” value on PPAR delta is 1.6.

`O=C(O)C(F)(F)C(F)(F)C(F)(F)C(F)(F)F` [PFPenA, Perfluoropentanoic acid]: it took 2630 µM to reach half-maximal inhibition in assay [1] (setting [8]) (IC50). Moreover, in assay [2], the Kd turned out to be 17 µM and the “Reduction in binding affinity for PPAR gamma compared to PFOA” value is “approximately 50 fold”. The IC50 in assay [3] (Homo sapiens, MCF7, 48 h) was above 3000 µM. The IC50 in assay [4] (Homo sapiens) is around 3000 µM. The “Reduction in binding affinity for PPAR alpha compared to PFOA” value in assay [5] worked out at 10 fold. Moreover, the Kd in assay [5] (PPAR Receptor Binding Kd Alpha (apparent Kd)) is 62 µM. Besides, the “Fold activation of PPAR gamma” value on PPAR gamma (setting [9]) is 5.07 ± 2.29 fold. Besides, in assay [6] (setting [10]), the “Cholesterol (plasma)” value turned out to be 1.83 ± 0.41 mmol/L, the “Glucose (plasma)” value was 16.22 ± 1.29 mmol/L, the “Insulin (plasma)” value came to 124.7 ± 126.3 ng/mL and the “Triglycerides (plasma)” value amounted to 1.24 ± 0.04 mmol/L. Further, the “Plasma insulin, % of control values” in assay [6] (25 mg/kg) came out at 33.9%. Besides, in [6] (setting [11]), the “Cholesterol (plasma)” value came to 1.67 ± 0.20 mmol/L, the “Glucose (plasma)” value was found to be 16.67 ± 0.93 mmol/L, the “Insulin (plasma)” value was determined as 62.6 ± 68.26 ng/mL and the “Triglycerides (plasma)” value amounted to 1.07 ± 0.37 mmol/L. At PPAR delta, the “Fold activation of PPAR delta” value was determined as 0.45 ± 0.04 fold and the “Inhibition of activation of PPAR delta” value was determined as 2.2. This compound yielded an IC50 in assay [7] (Homo sapiens, HT-29, 48 h) above 3000 µM.

The values are drawn from US20060052451A1, “Method” (priority 2002, published 2006).
